Non-standard residues stand in square brackets, D forms with d. Residues, ends and D or L forms follow the SMILES beside them. *: point of attachment. Hpla = O=C(O)[C@@H](O)Cc1ccc(O)cc1; Hica(2S) = CC(C)C[C@H](O)C(=O)O; X1 = C[C@@H](O)[C@H](O*)C(=O)O
System: Locusta migratoria
Experiment: Myotropic effect was assessed in vitro, using an isometric muscle contraction bioassay employing isolated hindguts from the locust Locusta migratoria at 1 uM/L
Format: functional, Muscle tissue

Compound | Isometric contraction
CC(C)C[C@H](NC(=O)[C@H](Cc1ccc(O)cc1)NC(=O)[C@@H](N)CCCN=C(N)N)C(=O)N1CCC[C@H]1C(=O)O[C@H](C(=O)O)[C@@H](C)O.O=C(O)C(F)(F)F.O=C(O)C(F)(F)F.O=C(O)C(F)(F)F (H-RYLP-X1) | 106%
CC(C)C[C@H](OC(=O)[C@H](Cc1ccc(O)cc1)NC(=O)[C@@H](N)CCCN=C(N)N)C(=O)N1CCC[C@H]1C(=O)O[C@H](C(=O)O)[C@@H](C)O.O=C(O)C(F)(F)F.O=C(O)C(F)(F)F.O=C(O)C(F)(F)F (H-RY[Hica(2S)]P-X1) | 27%
CC(C)C[C@H](OC(=O)[C@H](Cc1ccc(O)cc1)NC(=O)[C@@H](N)CCCN=C(N)N)C(=O)N1CCC[C@H]1C(=O)N[C@H](C(=O)O)[C@@H](C)O.O=C(O)C(F)(F)F.O=C(O)C(F)(F)F.O=C(O)C(F)(F)F (H-RY[Hica(2S)]PT-OH) | 30%
CC(C)C[C@H](NC(=O)[C@H](Cc1ccc(O)cc1)OC(=O)[C@@H](N)CCCN=C(N)N)C(=O)N1CCC[C@H]1C(=O)N[C@H](C(=O)O)[C@@H](C)O.O=C(O)C(F)(F)F.O=C(O)C(F)(F)F.O=C(O)C(F)(F)F (H-R[Hpla]LPT-OH) | 66%
H-RYLPT-OH [PROCTOLIN] | 100%

— ChEMBL document CHEMBL1135149, “Syntheses of depsipeptide analogues of the insect neuropeptide proctolin” (2002)
